Patent US8889668B2, “Oxadiazole diaryl compounds” (Merck Serono SA, priority 2007, dated 2014)

Biological target: S1P1 (Homo sapiens (Human), UniProt P21453)
Assay: 35S-GTPγS binding, membranes from CHO cells expressing S1P1
Format: biochemical
Settings: 60 min 30° C., read-out: S1P1 GTPgS EC50

Sequence of S1P1 (P21453 whole entry, species assumed): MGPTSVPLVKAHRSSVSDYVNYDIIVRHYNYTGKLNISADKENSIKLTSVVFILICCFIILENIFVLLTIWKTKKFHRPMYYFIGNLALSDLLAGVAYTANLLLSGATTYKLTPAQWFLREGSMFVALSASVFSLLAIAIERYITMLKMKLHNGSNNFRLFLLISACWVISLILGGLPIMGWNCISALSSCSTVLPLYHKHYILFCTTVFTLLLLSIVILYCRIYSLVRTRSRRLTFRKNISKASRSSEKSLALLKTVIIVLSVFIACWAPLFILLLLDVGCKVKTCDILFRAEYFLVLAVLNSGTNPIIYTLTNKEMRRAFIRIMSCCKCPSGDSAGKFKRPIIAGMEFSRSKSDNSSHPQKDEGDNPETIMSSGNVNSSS

EC50 [nM] | Compound
589 | CN(c1ccc(-c2nc(-c3ccccc3OC(F)(F)F)no2)cc1[N+](=O)[O-])C1CCCCC1 [Compound I5, N-cyclohexyl-N-methyl-2-nitro-4-{3-[2-(trifluoromethoxy)phenyl]-1,2,4-oxadiazol-5-yl}aniline]
712 | COc1ccccc1-c1noc(-c2ccc(N3CCOCC3)c(N)c2)n1 [Compound I6, 5-[3-(2-methoxyphenyl)-1,2,4-oxadiazol-5-yl]-2-morpholin-4-ylaniline]
254 | CCOc1ccccc1-c1noc(-c2ccc(N3CCCCC3)c([N+](=O)[O-])c2)n1 [Compound I7, 1-{4-[3-(2-ethoxyphenyl)-1,2,4-oxadiazol-5-yl]-2-nitrophenyl}piperidine]
80 | O=[N+]([O-])c1cc(-c2nc(-c3ccccc3OC(F)(F)F)no2)ccc1N1CCCC(F)(F)C1 [Compound I11, 3,3-difluoro-1-(2-nitro-4-{3-[2-(trifluoromethoxy)phenyl]-1,2,4-oxadiazol-5-yl}phenyl)piperidine]
132 | COc1ccccc1-c1noc(-c2ccc(N3CCCC3)c([N+](=O)[O-])c2)n1 [Compound I13, 3-(2-methoxyphenyl)-5-(3-nitro-4-pyrrolidin-1-ylphenyl)-1,2,4-oxadiazole]
428 | O=[N+]([O-])c1cc(-c2nc(-c3ccccc3OC(F)(F)F)no2)ccc1N1CCCC1 [Compound I14, 5-(3-nitro-4-pyrrolidin-1-ylphenyl)-3-[2-(trifluoromethoxy)phenyl]-1,2,4-oxadiazole]
1130 | O=[N+]([O-])c1cc(-c2nc(-c3ccccc3OC(F)(F)F)no2)ccc1N1CCCCCC1 [Compound I15, 1-(2-nitro-4-{3-[2-(trifluoromethoxy)phenyl]-1,2,4-oxadiazol-5-yl}phenyl)azepane]
228 | COc1ccccc1-c1noc(-c2ccc(N3CCCCCC3)c([N+](=O)[O-])c2)n1 [Compound I16, 1-{4-[3-(2-methoxyphenyl)-1,2,4-oxadiazol-5-yl]-2-nitrophenyl}azepane]
135 | O=[N+]([O-])c1cc(-c2nc(-c3ccccc3OC(F)(F)F)no2)ccc1N1CCOCC1 [Compound I17, 4-(2-nitro-4-{3-[2-(trifluoromethoxy)phenyl]-1,2,4-oxadiazol-5-yl}phenyl)morpholine]
57 | COc1ccccc1-c1noc(-c2ccc(-c3ccccc3C(F)(F)F)c(C)c2)n1 [Compound I24, 3-(2-methoxyphenyl)-5-[2-methyl-2′-(trifluoromethyl)biphenyl-4-yl]-1,2,4-oxadiazole]
64 | CC(C)Cc1ccc(-c2nc(-c3ccccc3OC(F)(F)F)no2)cc1 [Compound I30, 5-(4-isobutylphenyl)-3-[2-(trifluoromethoxy)phenyl]-1,2,4-oxadiazole]
58 | O=[N+]([O-])c1cc(-c2nc(-c3ccccc3OC(F)(F)F)no2)ccc1N1CCCCC1 [Compound I31, 1-(2-nitro-4-{3-[2-(trifluoromethoxy)phenyl]-1,2,4-oxadiazol-5-yl}phenyl)piperidine]
921 | COc1ccccc1-c1noc(-c2ccc(N3CCCC(F)(F)C3)c(N(S(C)(=O)=O)S(C)(=O)=O)c2)n1 [Compound I37, N-dimethanesulfonyl-2-(3,3-difluoropiperidin-1-yl)-5-{3-[2-(methoxy)phenyl]-1,2,4-oxadiazol-5-yl}aniline]
4470 | CC1CCC(C)N1c1ccc(-c2nc(-c3ccccc3OC(F)(F)F)no2)cc1[N+](=O)[O-] (stereo not shown) [Compound I38, 5-[4-(2,5-dimethylpyrrolidin-1-yl)-3-nitrophenyl]-3-[2-(trifluoromethoxy)phenyl]-1,2,4-oxadiazole]
267 | COc1ccc(F)cc1-c1noc(-c2ccc(N3C(C)CCC3C)c([N+](=O)[O-])c2)n1 (stereo not shown) [Compound I39, 5-[4-(2,5-dimethylpyrrolidin-1-yl)-3-nitrophenyl]-3-(5-fluoro-2-methoxyphenyl)-1,2,4-oxadiazole]
27 | COc1ccccc1-c1noc(-c2ccc(-c3ccccc3OC)c(C)c2)n1 [Compound I40, 5-(2′-methoxy-2-methylbiphenyl-4-yl)-3-(2-methoxyphenyl)-1,2,4-oxadiazole]
116 | Nc1cc(-c2nc(-c3ccccc3OC(F)(F)F)no2)ccc1N1CCCC(F)(F)C1 [Compound I41, 2-(3,3-difluoropiperidin-1-yl)-5-{3-[2-(trifluoromethoxy)phenyl]-1,2,4-oxadiazol-5-yl}aniline]
1250 | COc1ccccc1-c1noc(-c2ccc(N3C(C)CCC3C)c([N+](=O)[O-])c2)n1 (stereo not shown) [Compound I42, 5-[4-(2,5-dimethylpyrrolidin-1-yl)-3-nitrophenyl]-3-(2-methoxyphenyl)-1,2,4-oxadiazole]
39 | CS(=O)(=O)Nc1cc(-c2nc(-c3ccccc3OC(F)(F)F)no2)ccc1N1CCCC(F)(F)C1 [Compound I43, N-(2-(3,3-difluoropiperidin-1-yl)-5-{3-[2-(trifluoromethoxy)phenyl]-1,2,4-oxadiazol-5-yl}phenyl)methanesulfonamide]

EC50 [nM] | Compound
33 | COc1ccccc1-c1noc(-c2ccc(-c3ccccc3C)c(OC)c2)n1 [Compound I46, 5-(2-methoxy-2′-methylbiphenyl-4-yl)-3-(2-methoxyphenyl)-1,2,4-oxadiazole]
1200 | COc1ccc(-c2ccc(-c3nc(-c4ccccc4OC)no3)cc2C)c(OC)c1 [Compound I47, 5-(2′,4′-dimethoxy-2-methylbiphenyl-4-yl)-3-(2-methoxyphenyl)-1,2,4-oxadiazole]
191 | Cc1cc(-c2nc(-c3ccccc3OC(F)(F)F)no2)ccc1-c1c(C)noc1C [Compound I49, 5-[4-(3,5-dimethylisoxazol-4-yl)-3-methylphenyl]-3-[2-(trifluoromethoxy)phenyl]-1,2,4-oxadiazole]
172 | COc1ccccc1-c1noc(-c2ccc(-c3c(C)noc3C)c(C)c2)n1 [Compound I50, 5-[4-(3,5-dimethylisoxazol-4-yl)-3-methylphenyl]-3-(2-methoxyphenyl)-1,2,4-oxadiazole]
85 | COCCN(CCOC)c1ccc(-c2nc(-c3cc(F)ccc3OC)no2)cc1[N+](=O)[O-] [Compound I51, 4-[3-(5-fluoro-2-methoxyphenyl)-1,2,4-oxadiazol-5-yl]-N,N-bis(2-methoxyethyl)-2-nitroaniline]
295 | COCCN(CCOC)c1ccc(-c2nc(-c3ccccc3OC)no2)cc1[N+](=O)[O-] [Compound I52, N,N-bis(2-methoxyethyl)-4-[3-(2-methoxyphenyl)-1,2,4-oxadiazol-5-yl]-2-nitroaniline]
302 | COc1ccc(-c2ccc(-c3nc(-c4ccccc4OC(F)(F)F)no3)cc2C)c(OC)c1 [Compound I56, 5-(2′,4′-dimethoxy-2-methylbiphenyl-4-yl)-3-[2-(trifluoromethoxy)phenyl]-1,2,4-oxadiazole]
39 | Cc1cc(-c2nc(-c3ccccc3OC(F)(F)F)no2)ccc1N1CCCCC1 [Compound I58, 1-(2-methyl-4-{3-[2-(trifluoromethoxy)phenyl]-1,2,4-oxadiazol-5-yl}phenyl)piperidine]
21 | COc1ccccc1-c1noc(-c2ccc(N3CCCCC3)c(C(F)(F)F)c2)n1 [Compound I59, 1-[4-[3-(2-methoxyphenyl)-1,2,4-oxadiazol-5-yl]-2-(trifluoromethyl)phenyl]piperidine]
98 | COc1ccccc1-c1noc(-c2ccc(N3CCOCC3)c(C)c2)n1 [Compound I64, 4-{4-[3-(2-methoxyphenyl)-1,2,4-oxadiazol-5-yl]-2-methylphenyl}morpholine]
130 | Cc1cc(-c2nc(-c3ccccc3OC(F)(F)F)no2)ccc1N1CCOCC1 [Compound I65, 4-(2-methyl-4-{3-[2-(trifluoromethoxy)phenyl]-1,2,4-oxadiazol-5-yl}phenyl)morpholine]
28 | COc1ccc(F)cc1-c1noc(-c2ccc(N3CCOCC3)c(C)c2)n1 [Compound I66, 4-{4-[3-(5-fluoro-2-methoxyphenyl)-1,2,4-oxadiazol-5-yl]-2-methylphenyl}morpholine]
24 | COc1ccccc1-c1noc(-c2ccc(N3CCCCC3)c(C)c2)n1 [Compound I67, 1-{4-[3-(2-methoxyphenyl)-1,2,4-oxadiazol-5-yl]-2-methylphenyl}piperidine]
10 | COc1ccc(F)cc1-c1noc(-c2ccc(N3CCCCC3)c(C)c2)n1 [Compound I68, 1-{4-[3-(5-fluoro-2-methoxyphenyl)-1,2,4-oxadiazol-5-yl]-2-methylphenyl}piperidine]
341 | COc1ccc(F)cc1-c1noc(-c2ccc(-c3cccnc3C)c(C)c2)n1 [Compound I73, 3-{4-[3-(5-fluoro-2-methoxyphenyl)-1,2,4-oxadiazol-5-yl]-2-methylphenyl}-2-methylpyridine]
1190 | COc1ccc(F)cc1-c1noc(-c2ccc(N3CCCCC3C)nc2)n1 (stereo not shown) [Compound I75, 5-[3-(5-fluoro-2-methoxyphenyl)-1,2,4-oxadiazol-5-yl]-2-(2-methylpiperidin-1-yl)pyridine]
522 | COCC1CCCN1c1ncc(-c2nc(-c3cc(F)ccc3OC)no2)cc1C (stereo not shown) [Compound I76, 5-[3-(5-fluoro-2-methoxyphenyl)-1,2,4-oxadiazol-5-yl]-2-[2-(methoxymethyl)pyrrolidin-1-yl]-3-methylpyridine]
657 | COc1ccc(F)cc1-c1noc(-c2ccc(-c3ccccc3C)c(C(=O)O)c2)n1 [Compound I79, 4-[3-(5-fluoro-2-methoxyphenyl)-1,2,4-oxadiazol-5-yl]-2′-methylbiphenyl-2-carboxylic acid]
